Activity calls are given as the source filed them. The rule behind the calls is not given here.

This assay deals with PMNL. As to the kind of experiment: Induction of 15-HETE formation in human PMNL cells by RP-HPLC analysis. It is filed as functional, cell-based.
With `C/C(=C\CC/C(C)=C/CC[C@]1(C)CCc2c(C)c(O)c(C)c(C)c2O1)CC/C=C(\C)C(=O)NCc1cccnc1`, the outcome was Active.
`C/C(=C\CC/C(C)=C/CC[C@]1(C)CCc2c(C)c(O)c(C)c(C)c2O1)CC/C=C(\C)C(=O)NCC1CCCCC1`: the result was Active.
For the compound `C/C(=C\CC/C(C)=C/CC[C@]1(C)CCc2c(C)c(O)cc(C)c2O1)CC/C=C(\C)C(=O)NCC1CCCCC1`, the outcome was Active.
As for `COc1ccc(CNC(=O)/C(C)=C/CC/C(C)=C/CC/C(C)=C/CC[C@]2(C)CCc3c(C)c(O)c(C)c(C)c3O2)cc1`, the result was Active.
